System: rabbit aorta
Test: Anti-atherosclerotic experiment: cholesterol-fed rabbits, aorta stained with Oil red O
Assay type: in vivo, Chinchilla rabbits
Settings: 1% cholesterol diet, 15 weeks, in drinking water; dihydrogen phosphate 165 mg/kg, hydrogen fumarate 174 mg/kg; compared with control and Meldonium dihydrate (124 mg/kg) groups
Method: Pharmacological experiment was carried out to examine the anti-atherosclerotic effect of Meldonium dihydrogen phosphate or Meldonium hydrogen fumarate in the aorta.
The experiments with Meldonium salt such as Meldonium dihydrogen phosphate or Meldonium hydrogen fumarate, were performed in 38 Chinchilla rabbits weighing 2.5-3.0 kg. The rabbits were randomly divided into 4 groups: Control (n=11), Meldonium dihydrate group (n=9) and Meldonium dihydrogen phosphate group (n=9) and Meldonium hydrogen fumarate group (n=9).
Experimental atherosclerosis, i.e. serum hyperlipidaemia and the atherosclerotic manifestations in the aorta, was induced by administering 1% cholesterol by weight together with standard diet.
The rabbits were fed with standard diet with 1% cholesterol dissolved in the sunflower seed oil (4% from the total amount of food). The diet was enriched with cholesterol as follows: 10 kg standard food for rabbits was heated to 60° C. and was mixed with 100 g warm cholesterol dissolved in 400 ml sunflower seed oil. The rabbits received 200 g of this food per day.
The experimental groups were given Meldonium dihydrate, Meldonium dihydrogen phosphate and Meldonium hydrogen fumarate, in a dose 124 mg/kg, 165 mg/kg and 174 mg/kg. The preparations were added to drinking water.
After 15 weeks the rabbits were sacrificed. Heart, aorta and liver were collected for examination. […]

Compound | reduction of the area of atherosclerotic plaque in rabbit aorta [fold]
C[N+](C)(C)NCCC(=O)O.O=P([O-])(O)O [Meldonium dihydrogen phosphate] | > 2
C[N+](C)(C)NCCC(=O)O.O=C([O-])C=CC(=O)O [Meldonium hydrogen fumarate] | > 2
